Ki, EC50 and half-life data for 23 molecules are collected here from ChEMBL document CHEMBL4840367, “2-Phenylcyclopropylmethylamine Derivatives as Dopamine D2 Receptor Partial Agonists: Design, Synthesis, and Biological Evaluation” (J Med Chem, 2021).

One data set has as its target D(1A) dopamine receptor (Homo sapiens, UniProt P21728).
In data set [1] the target is T1, D(2) dopamine receptor (Homo sapiens, UniProt P14416). It is filed as cell membranes, HEK293T, Membrane.
The target of data set [2] is T1, D(2) dopamine receptor.
The target of data set [3] is T1, D(2) dopamine receptor. This is another data set of the same source.
A further data set has as its target T2, D(4) dopamine receptor (Homo sapiens, UniProt P21917).
T2 sequence (P21917 whole entry): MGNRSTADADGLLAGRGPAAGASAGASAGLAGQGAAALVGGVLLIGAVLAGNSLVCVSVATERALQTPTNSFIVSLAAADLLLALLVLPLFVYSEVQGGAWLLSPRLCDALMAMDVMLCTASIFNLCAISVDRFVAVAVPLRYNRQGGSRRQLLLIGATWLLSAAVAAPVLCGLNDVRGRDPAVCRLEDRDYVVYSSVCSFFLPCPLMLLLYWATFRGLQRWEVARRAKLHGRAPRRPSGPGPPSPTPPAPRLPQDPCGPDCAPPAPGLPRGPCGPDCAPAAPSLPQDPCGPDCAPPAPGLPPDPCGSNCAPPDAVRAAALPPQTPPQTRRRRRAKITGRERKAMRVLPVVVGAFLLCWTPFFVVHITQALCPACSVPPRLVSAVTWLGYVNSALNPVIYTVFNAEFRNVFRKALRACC

The target in data set [4] is 5-hydroxytryptamine receptor 2A (Homo sapiens, UniProt P28223). Format: cell membranes, HEK293T, Membrane.
Sequence of 5-hydroxytryptamine receptor 2A (P28223 whole entry): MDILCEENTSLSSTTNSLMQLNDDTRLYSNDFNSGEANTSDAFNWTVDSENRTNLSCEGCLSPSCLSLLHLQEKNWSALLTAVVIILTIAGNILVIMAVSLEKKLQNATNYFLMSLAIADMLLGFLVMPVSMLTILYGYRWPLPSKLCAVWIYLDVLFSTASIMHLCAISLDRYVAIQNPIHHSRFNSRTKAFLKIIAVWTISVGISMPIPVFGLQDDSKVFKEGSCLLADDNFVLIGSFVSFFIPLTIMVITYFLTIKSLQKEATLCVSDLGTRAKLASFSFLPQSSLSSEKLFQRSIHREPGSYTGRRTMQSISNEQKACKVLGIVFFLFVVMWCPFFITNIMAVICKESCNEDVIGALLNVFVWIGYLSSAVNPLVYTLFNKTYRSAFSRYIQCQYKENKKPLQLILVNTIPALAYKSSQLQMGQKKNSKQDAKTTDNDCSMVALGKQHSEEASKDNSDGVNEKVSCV
Data set [5] addresses T3, 5-hydroxytryptamine receptor 2C (Homo sapiens, UniProt P28335).
T3 sequence (P28335 whole entry): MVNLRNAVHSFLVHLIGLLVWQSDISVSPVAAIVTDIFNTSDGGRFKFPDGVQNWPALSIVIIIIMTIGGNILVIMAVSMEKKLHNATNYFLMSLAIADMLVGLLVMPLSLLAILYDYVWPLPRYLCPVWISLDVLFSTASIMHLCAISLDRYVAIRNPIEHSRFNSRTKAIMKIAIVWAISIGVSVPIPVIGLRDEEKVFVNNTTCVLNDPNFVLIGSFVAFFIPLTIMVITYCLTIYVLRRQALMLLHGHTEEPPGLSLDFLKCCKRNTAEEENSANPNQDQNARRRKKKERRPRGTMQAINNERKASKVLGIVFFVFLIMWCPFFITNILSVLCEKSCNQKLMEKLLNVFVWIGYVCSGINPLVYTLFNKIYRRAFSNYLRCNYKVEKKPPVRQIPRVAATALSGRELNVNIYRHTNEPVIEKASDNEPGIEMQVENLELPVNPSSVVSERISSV

Data set [6] in a line: in vitro. The settings on record: mouse, liver microsomes. (In general: Microsomes from liver hold many membrane-bound enzymes, among them those of drug oxidation.)
Description: Metabolic stability in mouse liver microsomes assessed as half life preincubated for 5 mins followed by NADPH addition measured after 10 mins by LC-MS analysis
A short description of data set [7]: in vitro. The note with it: human, liver microsomes.
Description: Metabolic stability in human liver microsomes assessed as half life preincubated for 5 mins followed by NADPH addition measured after 10 mins by LC-MS analysis

Values joined by “and” are separate entries in the source; they are usually repeats but may differ in a detail not shown here. Identical values can stand only once. A value given as a limit tells only on which side of the number the result lay.

T1 sequence (P14416 whole entry): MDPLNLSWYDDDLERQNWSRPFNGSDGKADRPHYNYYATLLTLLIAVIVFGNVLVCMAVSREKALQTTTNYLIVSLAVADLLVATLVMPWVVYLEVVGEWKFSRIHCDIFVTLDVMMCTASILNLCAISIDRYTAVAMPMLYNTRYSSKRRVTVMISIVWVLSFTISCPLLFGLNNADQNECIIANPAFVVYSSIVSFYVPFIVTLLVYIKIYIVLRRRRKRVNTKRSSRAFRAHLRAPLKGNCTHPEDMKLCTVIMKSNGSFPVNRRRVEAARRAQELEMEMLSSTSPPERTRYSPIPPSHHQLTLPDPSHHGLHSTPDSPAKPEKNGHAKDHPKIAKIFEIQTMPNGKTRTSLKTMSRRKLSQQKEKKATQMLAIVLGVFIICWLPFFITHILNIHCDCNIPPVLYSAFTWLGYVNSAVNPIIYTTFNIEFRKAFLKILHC
Sequence of D(1A) dopamine receptor (P21728 whole entry): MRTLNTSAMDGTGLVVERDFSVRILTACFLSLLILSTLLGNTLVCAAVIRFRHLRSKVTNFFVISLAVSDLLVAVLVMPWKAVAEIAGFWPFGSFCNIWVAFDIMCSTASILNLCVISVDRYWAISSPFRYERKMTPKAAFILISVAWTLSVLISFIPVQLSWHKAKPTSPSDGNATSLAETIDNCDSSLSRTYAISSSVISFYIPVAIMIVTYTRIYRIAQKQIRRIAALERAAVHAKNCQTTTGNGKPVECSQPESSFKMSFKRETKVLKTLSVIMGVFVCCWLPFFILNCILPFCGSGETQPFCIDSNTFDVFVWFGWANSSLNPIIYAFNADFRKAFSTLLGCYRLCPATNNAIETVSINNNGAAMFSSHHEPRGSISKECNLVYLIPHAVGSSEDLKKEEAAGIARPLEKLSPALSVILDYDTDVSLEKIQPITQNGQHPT

The molecule `CN1CCc2ccccc2Cc2[nH]c3ccccc3c2CC1` came in with a Ki on D(1A) dopamine receptor of 2.93 nM.

On D(2) dopamine receptor [1], `COc1ccccc1C1CC1CNCC[C@H]1CC[C@H](NC(=O)N(C)C)CC1` (stereo not given in full) returned a Ki of 1820 nM.

For `COc1ccccc1C1CC1CNCCCOc1ccc2ccc(=O)[nH]c2c1` (stereo not given), the EC50 at D(2) dopamine receptor [2] was found to be 7.08 nM; at D(2) dopamine receptor [3] it was 11.2 nM. At D(2) dopamine receptor [1], this molecule had a Ki of 156 nM.

`CN(C)C(=O)N[C@H]1CC[C@H](CCNCC2CC2c2cccc(Cl)c2Cl)CC1` (stereo not given in full) gave a Ki on D(2) dopamine receptor [1] of 1330 nM.

With `O=C1CCc2ccc(OCCCCNCC3CC3c3cccc4c3OCCO4)cc2N1` (stereo not given), the EC50 amounted to 61.7 nM on D(2) dopamine receptor [2] and 95.5 nM on D(2) dopamine receptor [3]. Also, the Ki on D(2) dopamine receptor [1] was 384 nM.

As for `COc1ccccc1C1CC1CNC/C=C/COc1ccc2c(c1)NC(=O)CC2` (stereo not given), the 50% effective concentration (EC50) at D(2) dopamine receptor [2] was 61.3 nM and 60.3 nM; at D(2) dopamine receptor [3] it was 22.9 nM. The molecule also came in with a Ki at D(2) dopamine receptor [1] of 454 nM.

For `COc1ccccc1C1CC1CNCCCCCOc1ccc2c(c1)NC(=O)CC2` (stereo not given), the values for the half-maximal effective concentration (EC50) on D(2) dopamine receptor [2] and at D(2) dopamine receptor [3] were 417 nM and 891 nM, respectively. The molecule further showed a Ki on D(2) dopamine receptor [1] of 259 nM.

In the case of `O=c1ccc2ccc(OCCCCNCC3CC3c3cccc4c3OCCO4)cc2[nH]1` (stereo not given), the EC50 on D(2) dopamine receptor [2] is 23.4 nM; at D(2) dopamine receptor [3], 26.3 nM. Besides, affinity at D(2) dopamine receptor [1] was put at a Ki of 178 nM.

For the molecule `CSc1ccccc1C1CC1CNCCCCOc1ccc2c(c1)NC(=O)CC2` (stereo not given), the EC50 amounted to 35.7 nM on D(2) dopamine receptor [2] and 18.9 nM on D(2) dopamine receptor [3]. At D(2) dopamine receptor [1], this molecule showed a Ki of 366 nM.

Regarding `COc1ccc(Cl)cc1[C@H]1C[C@@H]1CNCCCCOc1ccc2c(c1)NC(=O)CC2`, the Ki on D(1A) dopamine receptor was above 10000 nM; at D(4) dopamine receptor, 373 nM; in data set [4], 2090 nM; in data set [5] it was 373 nM.

In the case of `COc1ccc(F)cc1[C@H]1C[C@@H]1CNCCCCOc1ccc2ccc(=O)[nH]c2c1`, the Ki at D(1A) dopamine receptor was above 10000 nM; on D(4) dopamine receptor, 122 nM; in [4], 1410 nM; in data set [5], 122 nM.

For the molecule `COc1ccc(F)cc1[C@H]1C[C@@H]1CNCCCOc1ccc2ccc(=O)[nH]c2c1`, the Ki was above 10000 nM at D(1A) dopamine receptor, 305 nM on D(4) dopamine receptor, 520 nM in data set [4] and 305 nM in [5].

For `COc1ccccc1C1CC1CNCCCOc1ccc2c(c1)NC(=O)CC2` (stereo not given), the concentration for a half-maximal effect (EC50) on D(2) dopamine receptor [2] is 10 nM; on D(2) dopamine receptor [3] it was 9.3 nM. The molecule further returned a Ki at D(2) dopamine receptor [1] of 126 nM.

As for `COc1ccc(F)cc1C1CC1CNCCCOc1ccc2c(c1)NC(=O)CC2` (stereo not given), the figures for the EC50 on D(2) dopamine receptor [2] and at D(2) dopamine receptor [3] were 14.9 nM and 3.47 nM, respectively. The same molecule returned a Ki at D(2) dopamine receptor [1] of 27.4 nM.

For the molecule `CN(CCCCOc1ccc2c(c1)NC(=O)CC2)CC1CC1c1cccc(Cl)c1Cl` (stereo not given), the Ki at D(2) dopamine receptor [1] is 322 nM.

`CN(C)C(=O)N[C@H]1CC[C@H](CCNCC2CC2c2cccc3c2OCCO3)CC1` (stereo not given in full) yielded an inhibitory constant (Ki) at D(2) dopamine receptor [1] of 2310 nM.

With `COc1ccccc1C1CC1CNCCCCOc1ccc2ccc(=O)[nH]c2c1` (stereo not given), the values for the EC50 on D(2) dopamine receptor [2] and at D(2) dopamine receptor [3] were 32.4 nM and 26.3 nM, respectively. The same molecule registered an inhibitory constant (Ki) at D(2) dopamine receptor [1] of 59.9 nM.

On D(2) dopamine receptor [1], `COc1ccccc1C1CC1CNCC[C@H]1CC[C@H](NC(=O)N2CCCC2)CC1` (stereo not given in full) yielded a Ki of 2190 nM.

For the molecule `COc1ccc(Cl)cc1[C@H]1C[C@@H]1CNCCCOc1ccc2ccc(=O)[nH]c2c1`, the Ki on D(1A) dopamine receptor is above 10000 nM; on D(4) dopamine receptor it was 604 nM; in data set [4], 1160 nM; in data set [5] it was 604 nM.

`COc1ccccc1C1CC1CNCC[C@H]1CC[C@H](NC(=O)c2ccccc2)CC1` (stereo not given in full) displayed a Ki on D(2) dopamine receptor [1] of 1040 nM.

Take `CSc1ccccc1C1CC1CNCCCCOc1ccc2ccc(=O)[nH]c2c1` (stereo not given): the EC50 at D(2) dopamine receptor [2] turned out to be 7.43 nM; on D(2) dopamine receptor [3], 2.88 nM. In addition, the Ki on D(2) dopamine receptor [1] was 95.2 nM.

Consider `O=c1ccc2ccc(OCCCCN3CCN(c4cccc5sccc45)CC3)cc2[nH]1` [BREXPIPRAZOLE], for which the half-life at 10 min in the data set “in vitro [6]” came out at 17.2 min; in “in vitro [7]” it was 27.2 min. Moreover, the EC50 at D(2) dopamine receptor [2] amounted to 16.1 nM; on D(2) dopamine receptor [3], 10.2 nM. Also, the Ki at D(2) dopamine receptor [1] worked out at 0.51 nM.

Turning to `CN(C)C(=O)N[C@H]1CC[C@H](CCN2CCN(c3cccc(Cl)c3Cl)CC2)CC1` [CARIPRAZINE], the figures for the half-life at 10 min in the data set “in vitro [6]” and in “in vitro [7]” were 22.3 min and 32.7 min, respectively.

By Ki is commonly meant the dissociation constant of the complex between target and ligand, obtained from inhibition or displacement. One may read the EC50 as the concentration needed to bring the measured effect to its halfway point. Usually half-life stands for the time needed for the level to fall by half in the phase considered. Low readings indicate fast loss, high ones slow loss.
